Source: US4792555A, “Phospholipase A2 inhibitors” (American Home Products Corporation, priority 1987, dated 1988)
Where a name gives a salt, the structure may show the parent alone. Read-outs that look alike come from different tables or passages of the source.

Assays:
[1] = target: T1, human platelet PLA2 (Homo sapiens, UniProt P14555); test: Inhibition of human platelet PLA2 (hydrolysis of [1-14C]oleic acid labelled E. coli membrane phospholipids) in vitro; format: biochemical; settings: for IC50: standard drugs
T1 sequence (P14555 21-144): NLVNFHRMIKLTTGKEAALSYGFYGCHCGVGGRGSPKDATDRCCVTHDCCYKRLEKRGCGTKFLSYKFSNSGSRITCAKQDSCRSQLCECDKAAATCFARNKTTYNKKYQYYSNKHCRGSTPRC
Description: The ability of the compounds to inhibit the activity of PLA2 enzyme is measured in the following in vitro assay.
The assay measures the hydrolysis of E. coli membrane phospholipids and the release of free [1-^14 C] oleic acid from the C-2 position of phospholipids by human platelet PLA2. To ice cold 15×100 mm test tubes, the following additions are made: 2,5×10 E. coli (equivalent to 4 nmol phospholipid), 5 mM Ca^++, 100 mM Tris buffer (pH=7.4), 100 μg platelet extract (or an amount to produce 20-30% hydrolysis), drug or vehicle. The final volume is adjusted to 500 μl with water. Mixtures are vortexed and incubated for 30 minutes in a shaking water bath. It should be noted that preliminary experiments are always performed with each new batch of platelets to establish linear hydrolysis of phospholipids with regard to protein concentration and time. The enzyme reaction is stopped by the addition of 3 volumes of chloroform to each tube which is vortexed and then centrifuged for 5 minutes at 500 g. The lower chloroform/methanol phase is removed and evaporated under N. The dried residue is redissolved in 50 μl CHCl3 :CH3 OH (9:1 v/v), spotted on aluminum-backed chromatographic plates and developed in a solvent system consisting of petroleum ether:diethyl ether:acetic acid (80:20:1). Free fatty acid ([1-^14 C]oleic acid) and [1-^14 C]oleic acid labeled phospholipids are visualized with exposure to iodine vapors. Radioactive areas that cochromatographed with authentic oleic acid and phospholipid standards are cut out and placed in a scintillation vial. One ml CH3 OH and 10 ml Hydrofluor are added to each cut strip and radioactivity is determined by liquid scintillation counting.
The percent hydrolysis is calculated by the following equation: [formula]

[2] = test system: rat carrageenan paw edema; test: Rat carrageenan paw edema assay; format: in vivo, male Sprague-Dawley rats; settings: for % Inhibition (paw edema): 100 mg/kg peroral, 1 hour prior to carrageenan, paw read at 3 hours
Description: The compounds of the invention are further tested in the rat carrageenan paw edema assay to determine their ability to inhibit the acute inflammatory response.
This assay is carried out as follows:
140-180 gm male Sprague-Dawley rats, in groups of 6 animals are injected subcutaneously in the right paw with 0.1 ml of 1% carrageenan at zero time. Mercury plethysmographic readings (ml) of the paw are made at zero time and 3 hours later. Test compounds are suspended or dissolved in 0.5% methylcellulose and given perorally 1 hour prior to carrageenan administration.
The increase in paw volume (edema in ml.) produced by the carrageenan is measured. […] Unpaired Student's t-test used to determine statistical significance.

[3] = test system: 12-O-tetradecanoylphorbol acetate (TPA)-induced murine ear edema; test: TPA-induced murine ear edema test; format: in vivo, Swiss Webster female mice; settings: oral, 30 minutes after TPA; 4 μg TPA/ear; measured 4 hours after TPA; dose in mg/kg not given
Description: The ability of the compounds of the invention to inhibit PLA2 is further examined in the in vivo 12-O-tetradecanoylphorbol acetate (TPA)-induced murine ear edema test. According to this test, Swiss Webster female mice (Buckshire), approximately 8 weeks old, are placed into plastic boxes in groups of six. Eight groups of mice receive TPA topically on the right ear. TPA is dissolved in acetone at a concentration of […]. The phlogistics are applied to the right ear by the means of an automatic pipet. Volumes of 10 μl are applied to the inner and outer surfaces of the ear. Each mouse receives 4 μg/ear TPA. The left ear (control) receives acetone delivered in the same manner. […] Measurements are taken with Oditest calipers, 0-10 mm with 0.01 graduations. The right and left ears are measured 4 hours after TPA-induced inflammation. The difference between right and left ear thickness is calculated and the significance is determined by a one way analysis of variance with Dunnett's comparisons to control (P=0.05). Drug effects are expressed as a percent change from control values: [formula]

[4] = test system: synthesis of arachidonic acid, PGE2 and LTC4 by murine peritoneal macrophages; test: Inhibition of synthesis of arachidonic acid, PGE2 and LTC4 by murine peritoneal macrophages; format: cell-based, CD-1 mice; settings: Mus musculus, Peritoneal macrophage, 2 hours
Description: The ability of the compounds of the invention to inhibit both leukotriene and prostaglandin synthesis is examined in an assay which measures the ability of the compounds of the invention to inhibit the synthesis of arachidonic acid, PGE2 and LTC4 by murine peritoneal macrophages.
The assay is carried out as follows:
Macrophages are removed from the peritoneal cavity of 55-57 day old CD-1 mice (killed by CO2 asphyxiation) by peritoneal lavage and centrifuged at 400×g for ten minutes. The cells are resuspended in Medium 199 and 4×10^6 cells are allowed to adhere on 35×10 mm Petri dishes for 1.5 hours at 37° C. in an atmosphere of 95% air and 5% CO2. The cell monolayers are washed and incubated overnight in Medium 199 supplemented with 10% heat inactivated bovine serum containing 1μCi[^14 C]-arachidonic acid, or in the absence of ^14 C-arachidonic acid when the supernatant is to be assayed by radioimmunoassay (RIA). The labeled cells are then washed and incubated at 37° C. for 2 hours in Medium 199 with the prostaglandin stimuli, zymosan, or 12-o-tetradecanoyl-phorbol-13-acetate (TPA) and in the presence or absence of test compounds. Following incubation, the supernatant is removed and subjected to radioimmunoassay in order to determine the percent inhibition of arachidonic acid, prostaglandin E2 and leukotriene C4 by the test compounds.

[5] = pH 7.4, read-out: % Inhibition of PLA2
[6] = at 100 μM, human platelet PLA2, 30 minutes, pH 7.4, read-out: % Inhibition of PLA2
[7] = human platelet PLA2, 30 minutes, pH 7.4

## N[C@@H](CC(=O)OCc1ccccc1)C(=O)NC1CCCCCCCCCCC1 [Example 7, (S)-3-Amino-4-(cyclododecylamino)-4-oxobutanoic acid phenylmethyl ester, hydrochloride]
[1]; [5]
  inhibition at 100 µM: 60%

## CCCCCCCCCCCCCCCCNC(=O)[C@H]1CCCN1 [Example 5b, N-(R)-Hexadecyl-2-pyrrolidinecarboxamide]
[1]; [6]
  inhibition at 100 µM: 98%
[2]
  % Inhibition (paw edema): 26%

## CCCC[C@H](N)C(=O)N1CCC2CCCCC2C1 (stereo partly drawn) [Example 2c, 2-[(S)-2-Amino-1-oxohexyl]decahydroisoquinoline, hydrochloride hemihydrate]
[1]; [6]
  inhibition at 100 µM: 24%

## Gold Sodium Thiomalate [reference compound]
[1]; [7]
  IC50: 43 µM

## CCCC[C@H](NC(=O)CCCCCCc1ccccc1)C(=O)N1CC(C)NC(C)C1 (stereo partly drawn) [Example 3, N-[(S)-1-Butyl-2-(3,5-dimethyl-1-piperazinyl)-2-oxoethyl]benzeneheptanamide]
[1]; [6]
  inhibition at 100 µM: 64%
[3]
  % Change from Control (mouse ear edema): -39%

## O=C(C1CCCCN1)N1CCC2CCCCC2C1 (centres unmarked) [Example 5f, Decahydro-2-(2-piperidininylcarbonyl)isoquinoline, hydrochloride]
[1]; [6]
  inhibition at 100 µM: 24%

## CCCCCCCCCCCCCCCCNC(=O)C(N)CCCC.Cl (centres unmarked) [Example 1, 2-Amino-N-hexadecylhexanamide, hydrochloride]
[1]; [5]
  inhibition at 100 µM: 99%
[3]
  % Change from Control (mouse ear edema): -25%

## CCCCC(N)C(=O)NC1CCCCCCCCCCC1.Cl (centres unmarked) [Example 2a, 2-Amino-N-cyclododecylhexanamide, hydrochloride]
[1]; [5]
  inhibition at 100 µM: 76%
[2]
  % Inhibition (paw edema): 22%
[3]
  % Change from Control (mouse ear edema): -60%

## CCCCCCCCCCCCCCCCNC(=O)[C@@H]1CCCN1 [Example 5a, N-(S)-Hexadecyl-2-pyrrolidinecarboxamide]
[1]; [6]
  inhibition at 100 µM: 92%
[2]
  % Inhibition (paw edema): 26%
[3]
  % Change from Control (mouse ear edema): -53%
[4]; arachidonic acid, zymosan or TPA stimulus, read-out: IC50 AA
  IC50: 19.6 µM
[4]; leukotriene C4, zymosan or TPA stimulus, read-out: IC50 LTC4
  IC50: 7.6 µM
[4]; prostaglandin E2, zymosan or TPA stimulus, read-out: IC50 PGE2
  IC50: 13.7 µM

## O=C(NC1CCCCCCCCCCC1)C1CCCCN1 (centres unmarked) [Example 5d, N-Cyclododecyl-2-piperidinecarboxamide, hydrochloride]
[1]; [5]
  inhibition at 100 µM: 45%

## CCCC[C@H](N)C(=O)N1CCC(C)CC(C)(C)C1 (stereo partly drawn) [Example 2b, 1-[(S)-2-Amino-1-oxohexyl]hexahydro-3,3,5-trimethyl-1H-azepine, hydrochloride]
[1]; [5]
  inhibition at 100 µM: 25%

## CCCCC(NC(=O)Cc1ccc(-c2ccccc2)cc1)C(=O)N1CC(C)NC(C)C1 (centres unmarked) [Example 4, N-[1-[(3,5-Dimethyl-1-piperazinyl)carbonyl]pentyl][1,1'-biphenyl]-4-acetamide]
[1]; [6]
  inhibition at 100 µM: 52%

## O=C(NC1CCCCCCCCCCC1)C1CCCN1 (centres unmarked) [Example 5c, N-Cyclododecyl-2-pyrrolidinecarboxamide, hydrochloride]
[1]; [5]
  inhibition at 100 µM: 58%

## N[C@@H](Cc1c[nH]c2ccccc12)C(=O)NC1CCCCCCCCCCC1 [Example 6, (S)-α-Amino-N-cyclododecyl-1H-indole-3-propanamide, hydrochloride]
[1]; [5]
  inhibition at 100 µM: 52%

## COc1ccc2c(c1)c(CC(=O)O)c(C)n2C(=O)c1ccc(Cl)cc1 [Indomethacin, reference compound]
[1]; [7]
  IC50: 48 µM
[2]; Rattus norvegicus, po, 3 h, read-out: Oral ED50 (95% C.L.)
  ED50: 3.7 mg/kg
